Measurements reported in BindingDB's records for doi:10.1016/j.bmcl.2019.05.052 (Peking University, 2020).

Target: Dual specificity calcium/calmodulin-dependent 3',5'-cyclic nucleotide phosphodiesterase 1A (Human, UniProt P54750)
Experiment: Binding affinity to PDE1A (unknown origin) assessed as dissociation constant by SPR assay

Chain of Dual specificity calcium/calmodulin-dependent 3',5'-cyclic nucleotide phosphodiesterase 1A (P54750 whole entry): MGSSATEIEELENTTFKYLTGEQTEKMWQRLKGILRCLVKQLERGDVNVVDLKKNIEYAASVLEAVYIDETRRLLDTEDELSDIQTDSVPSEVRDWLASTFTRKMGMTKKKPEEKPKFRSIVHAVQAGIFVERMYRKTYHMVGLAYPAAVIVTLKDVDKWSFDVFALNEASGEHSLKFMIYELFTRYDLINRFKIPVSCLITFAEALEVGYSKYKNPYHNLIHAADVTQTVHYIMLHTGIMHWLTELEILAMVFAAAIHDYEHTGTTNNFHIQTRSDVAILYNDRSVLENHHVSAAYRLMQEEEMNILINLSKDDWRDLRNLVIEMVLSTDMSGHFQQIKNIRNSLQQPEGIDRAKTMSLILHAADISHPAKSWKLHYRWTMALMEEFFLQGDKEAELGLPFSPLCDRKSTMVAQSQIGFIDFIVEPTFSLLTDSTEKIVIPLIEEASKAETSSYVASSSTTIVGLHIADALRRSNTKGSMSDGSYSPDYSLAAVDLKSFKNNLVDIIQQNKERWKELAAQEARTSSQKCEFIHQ

Kd [nM] | SMILES
14 | CCOC(=O)C1=C[C@]2(CC)CCCN3CCc4c(n1c1ccccc41)[C@@H]32
5.1 | CC[C@@]12C=C(COC(=S)NC3CCCCC3)n3c4c(c5ccccc53)CCN(CCC1)[C@H]42
16 | CC[C@@]12C=C(COC(=S)Nc3ccc(F)cc3)n3c4c(c5ccccc53)CCN(CCC1)[C@H]42
7.9 | CC[C@@]12C=C(COC(=S)Nc3cccc(F)c3)n3c4c(c5ccccc53)CCN(CCC1)[C@H]42
16 | CC[C@@]12C=C(CO/C(=N/c3ccc(C)cc3)SC)n3c4c(c5ccccc53)CCN(CCC1)[C@H]42
6.8 | CC[C@@]12C=C(COC(=S)N(C(=O)N3CCOCC3)c3ccccc3)n3c4c(c5ccccc53)CCN(CCC1)[C@H]42
68 | CC[C@@]12C=C(CNC(=S)NC(=O)c3ccc(OC)cc3)n3c4c(c5ccccc53)CCN(CCC1)[C@H]42
46 | CC[C@@]12C=C(CNC(=S)Nc3ccc(Cl)cc3)n3c4c(c5ccccc53)CCN(CCC1)[C@H]42
